Results as given in the supplement of paper PMC11061612.

Legend:
[1] = system: WSU-DLCL2 (B-Cell Non-Hodgkin's Lymphoma); assay: Bliss excess, mean over the matrix (fraction); higher = more synergy
Outline: (§1)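 Cell lines grown in DMEM/F12 or RPMI with 10% FBS were plated in 1536-well plates and held 24 hours at 37°C, 5% CO2 before 72 hours of exposure to two-drug dose matrices, with DMSO typically at 0.2%. CellTiter-Glo 2.0 luminescence gave viability, which was converted to inhibition. Vehicle wells were set to 0 and blank wells to 1. Combination Emax is the second-highest inhibition in the matrix, and Bliss excess is the observed combination effect minus the expected EA + EB − EA·EB, where EA and EB are the single-agent effects.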

[2] = system: HCC-827 (Lung Adenocarcinoma); assay: as above
Outline: as §1

Saos-2 (Osteosarcoma) [3] = assay: as above
Outline: as §1

[4] = system: BICR78 (Oral Cavity Carcinoma); assay: as above
Outline: as §1

[5] = system: D-283MED (Other Solid Carcinomas); assay: as above
Outline: as §1

A172 (Glioblastoma) = assay: as above
Outline: as §1

[6] = system: EKVX (Non-Small Cell Lung Carcinoma); assay: combination Emax (second highest fraction inhibited in the dose matrix, 72 h); higher = more inhibition; extreme values may be limits of the assay
Outline: as §1

[7] = system: SKN-3 (Head and Neck Carcinoma); assay: as above
Outline: as §1

[8] = system: SLVL (B-Cell Non-Hodgkin's Lymphoma); assay: as above
Outline: as §1

[9] = system: MES-SA (Other Solid Carcinomas); assay: as above
Outline: as §1

[10] = system: CAL-39 (Other Solid Carcinomas); assay: as above
Outline: as §1

MSTO-211H (Mesothelioma) = assay: as above
Outline: as §1

Saos-2 (Osteosarcoma) [11] = assay: as above
Outline: as §1

[12] = system: YT (Other Blood Carcinomas); assay: as above
Outline: as §1

HCC38 (Breast Carcinoma) = assay: as above
Outline: as §1

[13] = system: RCC10RGB (Kidney Carcinoma); assay: as above
Outline: as §1

[14] = system: HOP-92 (Non-Small Cell Lung Carcinoma); assay: as above
Outline: as §1

[15] = system: SNU-61 (Colorectal Carcinoma); assay: as above
Outline: as §1

[16] = system: P31-FUJ (Acute Myeloid Leukemia); assay: as above
Outline: as §1

[17] = system: ETK-1 (Biliary Tract Carcinoma); assay: as above
Outline: as §1
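For Bliss excess, mean over the matrix in this document: after 72 h of two-drug dosing.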

SMILES	Bliss excess [1]	Bliss excess [2]	Bliss excess (Saos-2 (Osteosarcoma) [3])	Bliss excess [4]	Bliss excess [5]	Bliss excess (A172 (Glioblastoma))	combination Emax [6]	combination Emax [7]	combination Emax [8]	combination Emax [9]	combination Emax [10]	combination Emax (MSTO-211H (Mesothelioma))	combination Emax (Saos-2 (Osteosarcoma) [11])	combination Emax [12]	combination Emax (HCC38 (Breast Carcinoma))	combination Emax [13]	combination Emax [14]	combination Emax [15]	combination Emax [16]	combination Emax [17]
CC(=O)Nc1cccc(-n2c(=O)n(C3CC3)c(=O)c3c(Nc4ccc(I)cc4F)n(C)c(=O)c(C)c32)c1 [Trametinib] + Cc1nc(-c2cn3c(n2)-c2ccc(-c4cnn(C(C)(C)C(N)=O)c4)cc2OCC3)n(C(C)C)n1 [Taselisib] (first compound max 1 µM, 7x7, partner max 10 µM)	0.0464	0.0731	0.0402	0.0654	0.119	0.0645	0.82	0.655	0.478	0.825	1	0.854	0.681	0.711	0.364	0.69	0.988	0.672	0.915	0.86
CCN(CCO)CCCOc1ccc2c(Nc3cc(CC(=O)Nc4cccc(F)c4)[nH]n3)ncnc2c1 [AZD2811] + C=CCn1c(=O)c2cnc(Nc3ccc(N4CCN(C)CC4)cc3)nc2n1-c1cccc(C(C)(C)O)n1 [AZD1775] (first compound max 1 µM, partner max 1 µM)	0.013	0.0272	0.029	0.0338	0.0452	-0.0033	0.17	0.148	0.889	0.767	0.415	0.618	0.704	0.888	0.489	0.518	0.646	0.212	0.917	0.479
CCN(CCO)CCCOc1ccc2c(Nc3cc(CC(=O)Nc4cccc(F)c4)[nH]n3)ncnc2c1 [AZD2811] + C[C@@H]1COCCN1C2=NC(=NC(=C2)C3(CC3)[S@](=N)(=O)C)C4=C5C=CNC5=NC=C4 [AZD6738] (first compound max 1 µM, 7x7, partner max 10 µM)	-0.0431	-0.0856	-0.0218	-0.0215	-0.0541	-0.0252	0.261	0.222	0.784	0.654	0.467	0.727	0.588	0.76	0.568	0.384	0.626	0.297	0.942	0.562
CC1(C)CCC(CN2CCN(c3ccc(C(=O)NS(=O)(=O)c4ccc(NCC5CCOCC5)c([N+](=O)[O-])c4)c(Oc4cnc5[nH]ccc5c4)c3)CC2)=C(c2ccc(Cl)cc2)C1 [Venetoclax] + C=CCn1c(=O)c2cnc(Nc3ccc(N4CCN(C)CC4)cc3)nc2n1-c1cccc(C(C)(C)O)n1 [AZD1775] (first compound max 1 µM, partner max 1 µM)	0.0465	-0.0764	0.0339	0.0011	0.0257	-0.0833	0.172	0.402	0.978	0.787	0.36	0.592	0.818	0.928	0.573	0.572	0.48	0.373	0.942	0.497
Cc1c2c(nn1C)CSCc1cc(n(C)n1)CSc1cc(c3ccccc3c1)OCCCc1c(C(=O)O)n(C)c3c-2c(Cl)ccc13 [AZD5991] + C[C@@H](Nc1cc(F)cc(F)c1)c1cc(C(=O)N(C)C)cc2c(=O)cc(N3CCOCC3)oc12 [AZD8186] (first compound max 1 µM, 7x7, partner max 3 µM)	-0.058	0.0064	-0.0271	-0.034	-0.0186	-0.004	0.29	0.31	0.47	0.267	0.704	0.313	0.491	1	0.396	0.557	0.587	0.168	0.959	0.306
CC1(C)CCC(CN2CCN(c3ccc(C(=O)NS(=O)(=O)c4ccc(NCC5CCOCC5)c([N+](=O)[O-])c4)c(Oc4cnc5[nH]ccc5c4)c3)CC2)=C(c2ccc(Cl)cc2)C1 [Venetoclax] + CN(C)CCCOc1ccc(-c2ccc3ncc4c(c3c2)n(C2CCOCC2)c(=O)n4C)cn1 [AZD0156] (first compound max 1 µM, 7x7, partner max 1 µM)	0.0518	-0.0453	-0.0364	0.0047	0.0189	-0.0482	0.22	0.134	0.848	0.138	0.21	0.123	0.42	0.475	0.193	0.174	0.292	0.182	0.861	0.202
CN(CCO)CC[C@H](CSc1ccccc1)Nc1ccc(S(=O)(=O)NC(=O)c2ccc(N3CCC([C@@H](O)c4ccccc4-c4ccc(Cl)cc4)CC3)cc2)cc1S(=O)(=O)C(F)(F)F [AZD4320] + CN(C)CCCOc1ccc(-c2ccc3ncc4c(c3c2)n(C2CCOCC2)c(=O)n4C)cn1 [AZD0156] (first compound max 1 µM, 7x7, partner max 1 µM)	0.0117	-0.0351	-0.0323	-0.0268	-0.0353	-0.0152	0.155	0.102	0.461	0.128	0.181	0.435	0.193	0.623	0.812	0.243	0.899	0.11	0.814	0.112
CCc1c2c(nc3ccc(O)cc13)-c1cc3c(c(=O)n1C2)COC(=O)[C@]3(O)CC [SN-38] + CN(C)CCCOc1ccc(-c2ccc3ncc4c(c3c2)n(C2CCOCC2)c(=O)n4C)cn1 [AZD0156] (first compound max 0.3 µM, 7x7, partner max 1 µM)	0.0312	0.0556	-0.0279	-0.0014	-0.024	0.0443	0.188	0.47	0.972	0.782	0.896	0.804	0.944	0.914	0.682	0.689	0.606	0.152	0.979	0.572
COc1cccc(OCCCN)c1-c1cc(Nc2cnc(C#N)cn2)n[nH]1 [Prexasertib] + CCc1c2c(nc3ccc(O)cc13)-c1cc3c(c(=O)n1C2)COC(=O)[C@]3(O)CC [SN-38] (first compound max 1 µM, 7x7, partner max 0.3 µM)	-0.006	0	-0.0064	-0.0236	-0.0222	-0.0322	0.379	0.885	0.968	0.762	0.919	0.808	0.887	0.96	0.753	0.825	0.873	0.698	0.979	0.727
CC1(C)CCC(CN2CCN(c3ccc(C(=O)NS(=O)(=O)c4ccc(NCC5CCOCC5)c([N+](=O)[O-])c4)c(Oc4cnc5[nH]ccc5c4)c3)CC2)=C(c2ccc(Cl)cc2)C1 [Venetoclax] + Cn1cnc2c(F)c(Nc3ccc(Br)cc3Cl)c(C(=O)NOCCO)cc21 [Selumetinib] (first compound max 1 µM, 7x7, partner max 3 µM)	0.0196	-0.0212	-0.0057	-0.0354	0.009	-0.0176	0.343	0.286	0.735	0.138	0.535	0.172	0.299	0.429	0.109	0.447	0.148	0.351	0.871	0.165
CN(C)CCCOc1ccc(-c2ccc3ncc4c(c3c2)n(C2CCOCC2)c(=O)n4C)cn1 [AZD0156] + C[C@@H]1COCCN1C2=NC(=NC(=C2)C3(CC3)[S@](=N)(=O)C)C4=C5C=CNC5=NC=C4 [AZD6738] (first compound max 1 µM, 7x7, partner max 10 µM)	0.0712	-0.003	-0.0133	0.0119	0.0357	0.024	0.234	0.414	0.84	0.807	0.5	0.856	0.394	0.727	0.558	0.403	0.665	0.299	0.912	0.632
COc1cccc(OCCCN)c1-c1cc(Nc2cnc(C#N)cn2)n[nH]1 [Prexasertib] + Cc1cc2ncnn2cc1Nc1ncc2c(n1)n(C1CCOCC1)c(=O)n2C [AZD7648] (first compound max 1 µM, 7x7, partner max 10 µM)	0.0071	0.0186	-0.0591	-0.0379	-0.0193	-0.0573	0.276	0.606	0.962	0.912	0.328	0.894	0.662	0.928	0.74	0.442	0.663	0.466	1	0.595
COc1cc2c(cc1OCCCCCOc1cc3c(cc1OC)C(=O)N1C=C(C)C[C@H]1C=N3)N=C[C@@H]1CC(C)=CN1C2=O [SG3199] + O=C(c1cc(Cc2n[nH]c(=O)c3ccccc23)ccc1F)N1CCN(C(=O)C2CC2)CC1 [Olaparib] (first compound max 0.001 µM, 7x7, partner max 10 µM)	-0.0058	-0.0194	-0.0277	-0.0456	-0.0347	0.0064	0.0945	0.0527	0.518	0.43	0.0869	0.124	0.125	0.25	0.0919	0.148	0.192	0.0451	0.124	0.188
